Assay results from the Kinase Knowledgebase extract (Sharma et al. 2016).

Target: EGFR (human) (UniProt P00533)
Sequence (P00533 whole entry, looked up): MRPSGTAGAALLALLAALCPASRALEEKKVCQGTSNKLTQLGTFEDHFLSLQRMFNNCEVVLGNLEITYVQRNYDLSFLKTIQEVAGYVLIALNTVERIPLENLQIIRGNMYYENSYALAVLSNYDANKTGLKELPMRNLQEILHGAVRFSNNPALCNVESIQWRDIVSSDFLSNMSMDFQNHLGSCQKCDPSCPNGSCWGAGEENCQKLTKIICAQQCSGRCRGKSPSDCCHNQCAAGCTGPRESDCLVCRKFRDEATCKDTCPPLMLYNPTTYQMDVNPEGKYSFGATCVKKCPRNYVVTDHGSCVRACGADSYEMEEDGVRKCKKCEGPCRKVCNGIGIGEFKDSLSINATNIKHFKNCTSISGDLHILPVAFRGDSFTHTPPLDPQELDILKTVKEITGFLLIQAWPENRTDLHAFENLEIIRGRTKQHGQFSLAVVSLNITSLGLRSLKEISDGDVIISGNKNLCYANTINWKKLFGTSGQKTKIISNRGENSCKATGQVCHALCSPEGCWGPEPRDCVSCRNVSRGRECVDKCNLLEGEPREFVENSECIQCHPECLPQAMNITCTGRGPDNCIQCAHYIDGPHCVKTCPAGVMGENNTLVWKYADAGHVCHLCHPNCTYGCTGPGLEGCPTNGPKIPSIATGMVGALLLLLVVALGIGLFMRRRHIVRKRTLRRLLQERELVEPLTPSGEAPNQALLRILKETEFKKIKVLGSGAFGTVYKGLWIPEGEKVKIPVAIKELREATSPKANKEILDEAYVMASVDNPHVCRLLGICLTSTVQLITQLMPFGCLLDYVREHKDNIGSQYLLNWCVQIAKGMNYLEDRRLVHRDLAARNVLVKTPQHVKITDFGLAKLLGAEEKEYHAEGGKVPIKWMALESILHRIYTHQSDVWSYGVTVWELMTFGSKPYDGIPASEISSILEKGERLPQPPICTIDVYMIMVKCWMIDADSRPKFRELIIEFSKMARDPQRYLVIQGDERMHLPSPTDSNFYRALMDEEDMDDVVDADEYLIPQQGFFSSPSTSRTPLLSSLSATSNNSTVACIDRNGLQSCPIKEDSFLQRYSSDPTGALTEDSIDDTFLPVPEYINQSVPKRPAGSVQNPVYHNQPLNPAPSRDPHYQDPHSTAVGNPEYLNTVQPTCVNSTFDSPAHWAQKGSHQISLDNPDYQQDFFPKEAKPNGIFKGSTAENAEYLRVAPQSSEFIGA

## CCc1nc(-c2cccc(NC(=O)c3c(F)cccc3F)c2)c(-c2ccnc(Nc3ccc(N4CCC(N5CCCCC5)CC4)c(F)c3)n2)s1
  IC50: < 100 nM

## CN(C)Cc1cccc(Nc2nccc(-c3scnc3-c3cccc(NC(=O)Cc4cccs4)c3)n2)c1
  IC50: < 100 nM

## O=C1COc2ccc(Nc3nccc(-c4scnc4-c4cccc(NC(=O)c5cc(F)ccc5F)c4)n3)cc2N1
  IC50: < 100 nM

## CN1CCc2ccc(Nc3nccc(-c4sc(C5CCNCC5)nc4-c4cccc(NC(=O)c5c(F)cccc5F)c4)n3)cc2C1
  IC50: < 100 nM

## CCNc1nc(-c2cccc(NC(=O)c3c(F)cccc3F)c2)c(-c2ccnc(Nc3ccc(OCCN(C)C)c(Cl)c3)n2)s1
  IC50: < 100 nM

## Cc1cccc(C(=O)Nc2cccc(-c3nc(C)sc3-c3ccnc(Nc4ccc(OCCN(C)C)c(Cl)c4)n3)c2)c1
  IC50: < 100 nM

## Nc1nc(-c2cccc(NC(=O)C3CCCCC3)c2)c(-c2ccnc(Nc3ccc4c(c3)CNCC4)n2)s1
  IC50: < 100 nM

## Nc1nc(-c2cccc(C(=O)Nc3c(F)cccc3F)c2)c(-c2ccnc(Nc3cccc(CN4CCCC4)c3)n2)s1
  IC50: < 100 nM

## O=C(Nc1cccc(-c2ncsc2-c2ccnc(Nc3cccc(CN4CCCC4)c3)n2)c1)c1c(F)cccc1F
  IC50: < 100 nM

## CN(C)CCOc1ccc(Nc2nccc(-c3sc(N4CCN(C)CC4)nc3-c3cccc(NC(=O)c4c(F)cccc4F)c3)n2)cc1Cl
  IC50: < 100 nM

## CN1CCc2ccc(Nc3nccc(-c4sc(NCCCN5CCOCC5)nc4-c4cccc(NC(=O)c5c(F)cccc5F)c4)n3)cc2C1
  IC50: < 100 nM

## CN(C)CCOc1cccc(Nc2nccc(-c3scnc3-c3cccc(NC(=O)Cc4cccs4)c3)n2)c1
  IC50: < 100 nM

## CN(C)CCOc1ccc(Nc2nccc(-c3sc(NS(=O)(=O)CC(F)(F)F)nc3-c3cccc(NC(=O)c4c(F)cccc4F)c3)n2)cc1
  IC50: < 100 nM

## CN1CCc2ccc(Nc3nccc(-c4sc(N5CCCC5)nc4-c4cccc(NC(=O)c5c(F)cccc5F)c4)n3)cc2C1
  IC50: < 100 nM

## COc1ccccc1C(=O)Nc1cccc(-c2nc(C)sc2-c2ccnc(Nc3ccc4c(c3)CN(C)CC4)n2)c1
  IC50: < 100 nM

## O=C(Cc1cccs1)Nc1cccc(-c2ncsc2-c2ccnc(Nc3ccc4c(c3)OCC(=O)N4)n2)c1
  IC50: < 100 nM

## CNc1nc(-c2cccc(NC(=O)c3c(F)cccc3F)c2)c(-c2ccnc(Nc3cccc(CN4CCCC4)c3)n2)s1
  IC50: < 100 nM

## CN(C)c1nc(-c2cccc(NC(=O)c3c(F)cccc3F)c2)c(-c2ccnc(Nc3ccc(OCCN4CCCC4)nc3)n2)s1
  IC50: < 100 nM

## CN1CCc2ccc(Nc3nccc(-c4sc(CS(=O)(=O)C(C)(C)C)nc4-c4cccc(NC(=O)c5c(F)cccc5F)c4)n3)cc2C1
  IC50: < 100 nM

## Cc1nc(-c2cccc(NC(=O)c3c(F)cccc3F)c2)c(-c2ccnc(Nc3ccc(OC4CCNCC4)c(F)c3)n2)s1
  IC50: < 100 nM

## O=C(Nc1cccc(-c2nc(NC3CC3)sc2-c2ccnc(Nc3ccc(OCCN4CCCC4)c(F)c3)n2)c1)c1c(F)cccc1F
  IC50: < 100 nM

## Nc1nc(-c2cccc(NC(=O)Cc3cccs3)c2)c(-c2ccnc(Nc3cccc(F)c3)n2)s1
  IC50: < 100 nM

## COc1ccc(Nc2nccc(-c3scnc3-c3cccc(NC(=O)Cc4cccs4)c3)n2)cc1OCCN(C)C
  IC50: < 100 nM

## Cc1nc(-c2cccc(NC(=O)c3c(F)cccc3F)c2)c(-c2ccnc(Nc3ccc(OC4CCN(C(=O)OCc5ccccc5)CC4)c(F)c3)n2)s1
  IC50: < 100 nM
